{
  "source": "paper PMC4122355",
  "about": "“Inhibitor of the Tyrosine Phosphatase STEP Reverses Cognitive Deficits in a Mouse Model of Alzheimer's Disease” (PLoS Biology, 2014)",
  "key": {"[1]": {"test_system": "GluN2B (Y1472), Pyk2 (Y402), ERK1/2 (Y204/187) in cortex", "experiment": "Tyr phosphorylation of STEP substrates in cortex of WT mice after i.p. injection", "type": "in vivo, mouse", "settings": "C57BL/6 mice, 10 mg/kg i.p., 3 h postinjection, relative to vehicle", "protocol": "Wild-type, male C57BL/6 mice (3–6 mo) were used for all studies. […] Cortical tissues were dissected out 3 h postinjection and processed for subcellular fractionation. […] Homogenates were centrifuged at 800 × g to remove nuclei and large debris (P1). Synaptosomal fractions (P2) were prepared from S1 by centrifugation at 9,200 × g for 15 min. The P2 pellet was washed twice and was resuspended in TEVP buffer. […] Samples were prepared and resolved by SDS-PAGE, transferred to nitrocellulose membrane, and incubated with phospho-specific antibodies (anti-pY^204/187 ERK1/2, anti-pY^402 Pyk2, anti-pY^1472 GluN2B) or total protein antibodies (anti-ERK2, anti-Pyk2, and anti-NR2B) overnight at 4°C. Immunoreactivity was visualized using a Chemiluminescent substrate kit (Pierce Biotechnology, Rockford, IL) and detected using a G:BOX with the image program GeneSnap (Syngene, Cambridge, UK). All densitometric quantifications were performed using the Genetools program."}, "SHP-2": {"target": "T1, SHP-2 (Homo sapiens, UniProt Q06124)", "T1 construct": "GST (N); made in house; host or cells: E. coli BL21 (DE3)", "T1 sequence (Q06124 1-593)": "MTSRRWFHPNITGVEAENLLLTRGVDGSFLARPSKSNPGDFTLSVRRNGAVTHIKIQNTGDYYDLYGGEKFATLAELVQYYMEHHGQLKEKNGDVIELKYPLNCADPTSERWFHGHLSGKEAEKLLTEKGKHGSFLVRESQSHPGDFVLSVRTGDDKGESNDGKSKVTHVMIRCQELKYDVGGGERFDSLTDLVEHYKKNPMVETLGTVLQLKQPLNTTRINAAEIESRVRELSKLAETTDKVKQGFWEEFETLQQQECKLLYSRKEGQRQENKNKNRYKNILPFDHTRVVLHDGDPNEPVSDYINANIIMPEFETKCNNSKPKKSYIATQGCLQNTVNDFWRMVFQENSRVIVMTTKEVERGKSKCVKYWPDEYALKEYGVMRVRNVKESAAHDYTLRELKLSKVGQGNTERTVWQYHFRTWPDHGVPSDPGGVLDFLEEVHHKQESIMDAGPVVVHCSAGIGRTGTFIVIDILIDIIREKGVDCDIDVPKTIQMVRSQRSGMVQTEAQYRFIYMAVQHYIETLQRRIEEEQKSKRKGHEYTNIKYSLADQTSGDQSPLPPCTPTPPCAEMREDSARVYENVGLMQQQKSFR", "experiment": "Selectivity pNPP assay, full-length PTPs: SHP-2", "type": "biochemical", "settings": "full-length PTP, 10 nM, 500 µM pNPP", "description": "(§1) Constructs were transformed into BL21 (DE3) E. coli cells. Fusion proteins were purified on a glutathione sepharose column."}, "HePTP": {"target": "T2, HePTP (Homo sapiens, UniProt P35236)", "T2 construct": "Full-length HePTP and PTP-SL proteins were purchased from Abnova; purchased Abnova (Taipei, Taiwan)", "T2 sequence (P35236 1-360)": "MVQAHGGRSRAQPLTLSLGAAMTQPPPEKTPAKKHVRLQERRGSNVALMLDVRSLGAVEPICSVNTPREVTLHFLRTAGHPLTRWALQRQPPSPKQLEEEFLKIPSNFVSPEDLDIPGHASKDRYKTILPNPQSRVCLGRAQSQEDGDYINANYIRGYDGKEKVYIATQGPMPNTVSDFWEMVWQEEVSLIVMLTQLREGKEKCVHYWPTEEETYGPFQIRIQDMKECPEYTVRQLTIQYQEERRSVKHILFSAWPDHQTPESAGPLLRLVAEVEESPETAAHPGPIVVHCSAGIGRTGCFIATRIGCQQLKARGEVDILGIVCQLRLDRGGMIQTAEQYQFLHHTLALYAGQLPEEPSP", "experiment": "Selectivity pNPP assay, full-length PTPs: HePTP", "type": "biochemical", "settings": "full-length PTP, 10 nM, 500 µM pNPP", "description": "as §1"}, "[2]": {"settings": "cited from earlier work"}},
  "data": [
    {"smiles": "Cl.Nc1cc(C(F)(F)F)cc2c1SSSSS2", "note": "[TC-2153, 8-(trifluoromethyl)-1,2,3,4,5-benzopentathiepin-6-amine hydrochloride]", "values": [
      {"measurement": "pERK1/2 in cortex (P2 fraction)", "setting": "[1]", "result": "2.52±0.16"},
      {"measurement": "pGluN2B in cortex (P2 fraction)", "setting": "[1]", "result": "1.66±0.28"},
      {"measurement": "pPyk2 in cortex (P2 fraction)", "setting": "[1]", "result": "1.80±0.30"},
      {"measurement": "IC50", "setting": "SHP-2", "result": 6.9, "unit": "µM"},
      {"measurement": "IC50", "setting": "HePTP", "result": "0.3635 ± 0.0012", "unit": "µM"},
      {"measurement": "LD50 (acute toxicity)", "setting": "[2]", "result": "> 1,000 mg/kg"}
    ]}
  ]
}
